Source: US9150505B2, “Prophylactic or therapeutic agent for diabetes or obesity” (AJINOMOTO CO., INC., priority 2010, dated 2015)

Target: T1, human CaSR (Homo sapiens, UniProt P41180)
T1 construct: expressed in transfected cells; host or cells: 293E cells (EBNA1-expressing HEK293, ATCC No. CRL-10852), transient transfection of hCaSR/pcDNA3.1
T1 sequence (P41180 20-1078): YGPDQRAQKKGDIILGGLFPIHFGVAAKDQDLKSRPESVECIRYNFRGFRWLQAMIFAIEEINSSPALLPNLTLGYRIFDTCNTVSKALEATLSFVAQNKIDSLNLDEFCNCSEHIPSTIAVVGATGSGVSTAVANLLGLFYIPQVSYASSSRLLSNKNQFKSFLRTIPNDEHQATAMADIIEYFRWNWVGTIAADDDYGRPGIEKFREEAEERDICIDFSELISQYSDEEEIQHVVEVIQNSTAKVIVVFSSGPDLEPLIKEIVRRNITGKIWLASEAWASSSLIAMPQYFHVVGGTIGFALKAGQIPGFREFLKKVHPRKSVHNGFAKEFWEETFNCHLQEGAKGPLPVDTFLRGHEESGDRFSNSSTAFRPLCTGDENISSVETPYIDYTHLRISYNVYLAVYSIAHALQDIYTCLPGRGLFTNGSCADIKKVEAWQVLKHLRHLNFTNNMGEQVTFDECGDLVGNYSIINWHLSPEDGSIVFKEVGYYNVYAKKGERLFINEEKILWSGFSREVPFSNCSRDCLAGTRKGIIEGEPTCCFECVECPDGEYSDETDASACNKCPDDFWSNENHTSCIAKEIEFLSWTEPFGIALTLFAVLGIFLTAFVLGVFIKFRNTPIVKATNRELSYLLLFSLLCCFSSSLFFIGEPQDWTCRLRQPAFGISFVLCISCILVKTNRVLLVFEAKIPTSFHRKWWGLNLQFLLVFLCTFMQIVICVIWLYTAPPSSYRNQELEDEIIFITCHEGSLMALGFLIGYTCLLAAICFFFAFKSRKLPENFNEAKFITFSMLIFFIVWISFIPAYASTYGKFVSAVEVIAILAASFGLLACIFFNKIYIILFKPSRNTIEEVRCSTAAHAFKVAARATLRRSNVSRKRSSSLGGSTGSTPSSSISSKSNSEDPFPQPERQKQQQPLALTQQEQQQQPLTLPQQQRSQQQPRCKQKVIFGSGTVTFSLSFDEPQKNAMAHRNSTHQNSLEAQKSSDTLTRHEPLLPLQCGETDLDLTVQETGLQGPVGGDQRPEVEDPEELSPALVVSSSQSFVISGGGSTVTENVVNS
Experiment: Assessment of CaSR agonistic activity (Ca2+ fluorescence, FLIPR, hCaSR-transfected 293E cells)
Type: cell-based
Settings: human CaSR-expressing 293E cells, 1.5 mM CaCl2 assay buffer, 3-minute change in fluorescence intensity
Description: CaSR gene was prepared according to the method described in Example 1 of WO07/55393. The resulting recombinant plasmid was used to generate human CaSR-expressing plasmid hCaSR/pcDNA3.1.
293E cells (EBNA1-expressing IIEK293 cells, ATCC No. CRL-10852) were cultured in DMEM ([…] Glucose-containing Dulbecco's modified Eagle medium, Nacalai Tesque) containing 10% bovine fetal serum in the presence of 250 μg/ml of G418. The cells were seeded on a 10 cm-diameter petri dish at 1.8×10^6 cells/15 ml, and left to stand in a CO2 incubator (5% CO2, 37° C.) for 24 hours. Thereafter, human CaSR expression plasmid hCaSR/pcDNA3.1 was transfected with transfection reagent Mirus Trans IT 293 (Takara Bio). Following static culture in a CO2 incubator for 24 hours, the cells were harvested with 10% bovine fetal serum-containing DMEM and seeded on a poly-D-lysine coat 384 well plate (Falcon) at 15,000 cells/well. Following static culture in a CO2 incubator for 24 hours, the medium was removed and the resultant was added with 50 μl/well of Ca^2+ fluorescent indicator Calcium 4 Assay Kit (Molecular Devices) dissolved in an assay buffer (146 mM NaCl, 5 mM KCl, 1 mM MgSO4, 1 mg/ml Glucose, 20 mM HEPES (PH 7.2), 1.5 mM CaCl2), and left to stand at 37° C. for an hour and then at room temperature for 30 minutes to allow intake of the indicator. The above-mentioned 384-well plate was transferred to FLIPR (Molecular Devices) and added with 12.5 μl/well of a compound dissolved in a 0.1% BSA-containing assay buffer to measure 3-minute change in the fluorescence intensity.
The difference between maximum and minimum fluorescence intensities before and after compound addition (RFU (Max−Min)) was determined by FLIPR automatic calculation. An activity rate was calculated where RFU (Max−Min) upon addition of a compound at a maximum concentration was defined 100% and RFU (Max−Min) upon addition of DMSO as a substitute for the compound at the same concentration was defined 0%. The rate was subjected to curve fitting using spreadsheet software Xfit to determine EC50 value, i.e., a compound concentration upon 50% activity rate.

- EC50: 3 nM
Structure (SMILES): N[C@@H](CNC(=O)Nc1cc(Cl)cc(S(=O)(=O)O)c1O)C(=O)O [Example 6, (2S)-2-amino-3-{[(5-chloro-2-hydroxy-3-sulfophenyl)carbamoyl]amino}propanoic acid]
